Reference: publication PMC10141580, “Cyclic Dichalcogenides Extend the Reach of Bioreductive Prodrugs to Harness Thiol/Disulfide Oxidoreductases: Applications to seco-Duocarmycins Targeting the Thioredoxin System” (ACS Central Science, 2023)
“And” between values parts separate entries of the source, which are not always exact repeats. Equal values may be shown once. Read-outs that look alike come from different tables or passages of the source.

What was measured:
[1] = system: NCI-60 standardized human tumor cell line panel; assay: cells; assay type: cell-based
HeLa-HRE cells = assay: Resazurin cytotoxicity assay, HeLa-HRE, 48 h
Description: We used A549 lung cancer and HeLa cervical cancer cell lines for initial screening of the prodrugs.
HeLa-HRE cells were treated with prodrugs of the
Dose -response curves were calculated from at least 27 incremental single concentrations over a
range of at least three log units.

COc1cc2cc(C(=O)N3C[C@@H](CCl)c4c3cc(OC(=O)N(CCC(=O)N3CCN(C)CC3)C3CCCCC3)c3ccccc43)[nH]c2c(OC)c1OC [P-CC60-CBI-TMI]
GI50 ([1]; SR, read-out: GI50): 280 nM
GI50 ([1]; SW-620, read-out: GI50): 1900 nM
GI50 ([1]; T-47D, read-out: GI50): 1900 nM
NCI-60 screening: Log(GI50) ([1]; TK-10 (RE) cell line, log10 of GI50 in M): -5.55
GI50 ([1]; TK-10 (RE) cell line, read-out: NCI-60 screening: Raw GI50): 2800 nM
GI50 ([1]; TK-10, read-out: GI50): 2800 nM
GI50 ([1]; U251, read-out: GI50): 1500 nM
GI50 ([1]; UACC-62, read-out: GI50): 1500 nM
GI50 ([1]; UACC-257, read-out: GI50): 2000 nM
NCI-60 screening: Log(GI50) ([1]; cell line A549/ATCC (LC:A549/ATCC), TMI sheet): -5.7
GI50 ([1]; cell line A549/ATCC (LC:A549/ATCC), TMI sheet, read-out: NCI-60 screening: Raw GI50): 2000 nM
NCI-60 screening: Log(GI50) ([1]; cell line BT-549 (BR:BT-549), TMI sheet): -5.8
GI50 ([1]; cell line BT-549 (BR:BT-549), TMI sheet, read-out: NCI-60 screening: Raw GI50): 1600 nM
NCI-60 screening: Log(GI50) ([1]; cell line CCRF-CEM (LE:CCRF-CEM), TMI sheet): -6
NCI-60 screening: Log(GI50) ([1]; cell line COLO 205 (CO:COLO 205), TMI sheet): -5.86
GI50 ([1]; cell line COLO 205 (CO:COLO 205), TMI sheet, read-out: NCI-60 screening: Raw GI50): 1400 nM
NCI-60 screening: Log(GI50) ([1]; cell line EKVX (LC:EKVX), TMI sheet): -5.71
GI50 ([1]; cell line EKVX (LC:EKVX), TMI sheet, read-out: NCI-60 screening: Raw GI50): 1900 nM
NCI-60 screening: Log(GI50) ([1]; cell line HCC-2998 (CO:HCC-2998), TMI sheet): -5.82
GI50 ([1]; cell line HCC-2998 (CO:HCC-2998), TMI sheet, read-out: NCI-60 screening: Raw GI50): 1500 nM
NCI-60 screening: Log(GI50) ([1]; cell line HCT-15 (CO:HCT-15), TMI sheet): -5.76
GI50 ([1]; cell line HCT-15 (CO:HCT-15), TMI sheet, read-out: NCI-60 screening: Raw GI50): 1700 nM
NCI-60 screening: Log(GI50) ([1]; cell line HCT-116 (CO:HCT-116), TMI sheet): -5.82
GI50 ([1]; cell line HCT-116 (CO:HCT-116), TMI sheet, read-out: NCI-60 screening: Raw GI50): 1500 nM
NCI-60 screening: Log(GI50) ([1]; cell line HL-60(TB) (LE:HL-60(TB)), TMI sheet): -6.12
NCI-60 screening: Log(GI50) ([1]; cell line HOP-62 (LC:HOP-62), TMI sheet): -6.23
GI50 ([1]; cell line HOP-62 (LC:HOP-62), TMI sheet, read-out: NCI-60 screening: Raw GI50): 590 nM
NCI-60 screening: Log(GI50) ([1]; cell line HOP-92 (LC:HOP-92), TMI sheet): -5.6
NCI-60 screening: Log(GI50) ([1]; cell line HT29 (CO:HT29), TMI sheet): -5.82
GI50 ([1]; cell line HT29 (CO:HT29), TMI sheet, read-out: NCI-60 screening: Raw GI50): 1500 nM
NCI-60 screening: Log(GI50) ([1]; cell line K-562 (LE:K-562), TMI sheet): -6.17
NCI-60 screening: Log(GI50) ([1]; cell line KM12 (CO:KM12), TMI sheet): -5.68
GI50 ([1]; cell line KM12 (CO:KM12), TMI sheet, read-out: NCI-60 screening: Raw GI50): 2100 nM
NCI-60 screening: Log(GI50) ([1]; cell line LOX IMVI (ME:LOX IMVI), TMI sheet): -5.96
GI50 ([1]; cell line LOX IMVI (ME:LOX IMVI), TMI sheet, read-out: NCI-60 screening: Raw GI50): 1100 nM
NCI-60 screening: Log(GI50) ([1]; cell line M14 (ME:M14), TMI sheet): -5.82
GI50 ([1]; cell line M14 (ME:M14), TMI sheet, read-out: NCI-60 screening: Raw GI50): 1500 nM
NCI-60 screening: Log(GI50) ([1]; cell line MALME-3M (ME:MALME-3M), TMI sheet): -5.8
GI50 ([1]; cell line MALME-3M (ME:MALME-3M), TMI sheet, read-out: NCI-60 screening: Raw GI50): 1600 nM
NCI-60 screening: Log(GI50) ([1]; cell line MCF7 (BR:MCF7), TMI sheet): -6.5
NCI-60 screening: Log(GI50) ([1]; cell line MDA-MB-435 (ME:MDA-MB-435), TMI sheet): -5.75
NCI-60 screening: Log(GI50) ([1]; cell line MOLT-4 (LE:MOLT-4), TMI sheet): -6.23
GI50 ([1]; cell line MOLT-4 (LE:MOLT-4), TMI sheet, read-out: NCI-60 screening: Raw GI50): 590 nM
NCI-60 screening: Log(GI50) ([1]; cell line NCI-H23 (LC:NCI-H23), TMI sheet): -6.33
NCI-60 screening: Log(GI50) ([1]; cell line NCI-H226 (LC:NCI-H226), TMI sheet): -5.84
GI50 ([1]; cell line NCI-H226 (LC:NCI-H226), TMI sheet, read-out: NCI-60 screening: Raw GI50): 1400 nM
NCI-60 screening: Log(GI50) ([1]; cell line RPMI-8226 (LE:RPMI-8226), TMI sheet): -5.83
GI50 ([1]; cell line RPMI-8226 (LE:RPMI-8226), TMI sheet, read-out: NCI-60 screening: Raw GI50): 1500 nM
NCI-60 screening: Log(GI50) ([1]; cell line SF-268 (CNS:SF-268), TMI sheet): -5.81
GI50 ([1]; cell line SF-268 (CNS:SF-268), TMI sheet, read-out: NCI-60 screening: Raw GI50): 1500 nM
NCI-60 screening: Log(GI50) ([1]; cell line SF-295 (CNS:SF-295), TMI sheet): -5.81
GI50 ([1]; cell line SF-295 (CNS:SF-295), TMI sheet, read-out: NCI-60 screening: Raw GI50): 1500 nM
NCI-60 screening: Log(GI50) ([1]; cell line SF-539 (CNS:SF-539), TMI sheet): -5.88
NCI-60 screening: Log(GI50) ([1]; cell line SK-MEL-5 (ME:SK-MEL-5), TMI sheet): -5.79
GI50 ([1]; cell line SK-MEL-5 (ME:SK-MEL-5), TMI sheet, read-out: NCI-60 screening: Raw GI50): 1600 nM
NCI-60 screening: Log(GI50) ([1]; cell line SK-MEL-28 (ME:SK-MEL-28), TMI sheet): -5.45
NCI-60 screening: Log(GI50) ([1]; cell line SNB-19 (CNS:SNB-19), TMI sheet): -5.65
GI50 ([1]; cell line SNB-19 (CNS:SNB-19), TMI sheet, read-out: NCI-60 screening: Raw GI50): 2200 nM
NCI-60 screening: Log(GI50) ([1]; cell line SR (LE:SR), TMI sheet): -6.56
NCI-60 screening: Log(GI50) ([1]; cell line SW-620 (CO:SW-620), TMI sheet): -5.72
GI50 ([1]; cell line SW-620 (CO:SW-620), TMI sheet, read-out: NCI-60 screening: Raw GI50): 1900 nM
NCI-60 screening: Log(GI50) ([1]; cell line T-47D (BR:T-47D), TMI sheet): -5.72
GI50 ([1]; cell line T-47D (BR:T-47D), TMI sheet, read-out: NCI-60 screening: Raw GI50): 1900 nM
NCI-60 screening: Log(GI50) ([1]; cell line U251 (CNS:U251), TMI sheet): -5.82
GI50 ([1]; cell line U251 (CNS:U251), TMI sheet, read-out: NCI-60 screening: Raw GI50): 1500 nM
NCI-60 screening: Log(GI50) ([1]; cell line UACC-62 (ME:UACC-62), TMI sheet): -5.82
GI50 ([1]; cell line UACC-62 (ME:UACC-62), TMI sheet, read-out: NCI-60 screening: Raw GI50): 1500 nM
NCI-60 screening: Log(GI50) ([1]; cell line UACC-257 (ME:UACC-257), TMI sheet): -5.7
GI50 ([1]; cell line UACC-257 (ME:UACC-257), TMI sheet, read-out: NCI-60 screening: Raw GI50): 2000 nM
GI50 ([1]; read-out: GI50): 1500 nM and 2400 nM
GI50 ([1]; read-out: NCI-60 screening: Raw GI50): 1500 nM
IC50 (HeLa-HRE cells; initial screening, A549 and HeLa cell lines): > 1000 nM
IC50(HeLa)/IC50(A549) (HeLa-HRE cells; ratio HeLa vs A549): 0.7
IC50 (HeLa-HRE cells; read-out: IC50(nM): HeLa, HeLa, 48 h): 1250 nM
